In this experiment the test system is Vibrio fischeri. The experiment is described as follows: increase in luminescence of Vibrio fischeri culture with addition of aspartic acid to the cultivation medium. Type of experiment: cell-based. Particulars: 12.5 mg of aspartic acid added to cultivation medium; aspartic acid-free medium starts only at a later time. How it is done:
In two cultivation experiments carried out in parallel, bacterial suspensions were prepared according to the method described below. In order to test the influence of aspartic acid, 12.5 mg of aspartic acid had been added to the cultivation medium of one of the two reaction mixtures. The effect of the addition of aspartic acid was detected by taking luminescence images using the Nightowl camera system from EG&G Berthold and is depicted in FIGS. 2a and 2b.
A tissue culture flask (e.g. Falcon Cat. No. 353110) which contains 125 ml of cultivation medium and a magnetic stirring bar was inoculated with bacteria from a Vibrio fischeri strain stock. The inoculated cultivation solution was then incubated with slow stirring on a magnetic stirrer at room temperature.

For the molecule `N[C@@H](CC(=O)O)C(=O)O` [aspartic acid], the “incubation time after which the culture showed a distinct luminescence” value is listed as at most 18 h.
